{
  "source": "patent US20250382583A1",
  "about": "“ENHANCED METHODS FOR INDUCING AND MAINTAINING NAIVE HUMAN PLURIPOTENT STEM CELLS” (Washington University, priority 2021, published 2025)",
  "format_in_all_cases": "cell-based, human",
  "key": {"[1]": {"test_system": "WIBR3 OCT4-ΔPE-GFP+-naïve hESCs", "assay": "Extended maintenance assay, OCT4-ΔPE-GFP reporter activity (imaging, qRT-PCR)", "details": "for activity in maintaining OCT4-ΔPE-GFP reporter activity after passaging: 2.5 and 5 μM, two passages", "method": "(§1) Defining alternative naïve maintenance media: To define the activity of selected hit compounds during extended naïve culture, naïve hESCs derived from the primed state and maintained in 5i/L/A were dissociated with Accutase (Thermo Fischer Scientific, A1110501) and 1.5×10^5 single cells were seeded in 5i/L/A media on MEF-coated plates. After 24 hours, 5i/L/A media were switched to experimental maintenance conditions to validate hits from the screen. After 4-6 days the cells were split in a 1:2 or 1:3 ratio and further maintained for 4-6 days before analysis by FACS, qRT-PCR, AP staining, and/or RNA-seq. 5i/L/A media in which the MEK inhibitor PD0325901 was replaced with 5 μM AZ628 are represented as alternative 5i/L/A (a5i/L/A). FXGY, AXGY, AXGYU, PXGY, and GXGY media were prepared in serum-free N2B27 media supplemented with 1 μM PD166866, 5 μM AZ628, 5 μM AZ628 and 1 μM UNC0638, 1 μM PD0325901, and 5 μM GDC-0994, respectively, together with 2 μM XAV939, 2 μM Gö6983, and 10 μM Y-27632. During these assays cells were fed with fresh media every second day and cultured in 5% O2, 5% CO2 at 37° C. Detailed information on conditions used for defining alternative naïve maintenance media can be found in Tables 1-6.\n(§2) Quantitative reverse transcriptase PCR (qRT-PCR): Total RNA was isolated using the E.Z.N.A. total RNA kit I and cDNA synthesis was performed from total RNA using the high-capacity cDNA reverse transcription kit (Applied Biosystems, 4368814). qRT-PCR was performed using PowerUp SYBR Green Master Mix (Applied Biosystems, A25743) on the StepOnePlus Real-Time PCR System (Applied Biosystems). Gene expression was normalized to RPLP0 and analyzed using the ΔCt method. Error bars represent the standard deviation (SD) of the mean of technical replicates.\nFor this purpose, WIBR3 OCT4-ΔPE-GFP+-naïve hESCs that were generated in the absence of reprogramming transgenes were used using the 5i/L/A cocktail. […] Compounds were tested at two different concentrations (2.5 and 5 μM), and cells were maintained for two passages (FIG. 2A)."}, "H9-naïve hESCs [2]": {"test_system": "H9-naïve hESCs", "assay": "Extended maintenance assay, flow cytometry for naïve-specific CD75 and SUSD2", "details": "serum-free media supplemented with XGY, 2.5 μM compound", "method": "as §1\nFlow cytometry: Primed hESCs were single-cell dissociated using TrypLE Express, while Accutase was used for naïve hESCs. Cells were resuspended in fibroblast medium and centrifuged. Cell pellets were washed in 5 mL ice-cold PBS. The cells were then resuspended in […] fresh ice-cold FACS buffer (PBS supplemented with 5% FBS), and incubated with antibodies for 30 minutes on ice in the dark. The following antibodies were used: anti-SUSD2-PE (1:100), anti-CD75-eFluor 660 (1:100), anti-CD90-PE (1:100), anti-ITGA6-FITC (1:100) and EGFR-APC (1:25). Post-incubation the cells were washed once with 1 mL ice-cold PBS, resuspended in fresh 500 μl FACS buffer, and passed through a […] cell strainer into round bottom FACS tubes (Corning, #352235). Flow cytometry was performed using a BD LSRFortessa X-20 and the data were analyzed using the FlowJo software."}, "H9 hESCs": {"test_system": "H9 hESCs", "assay": "Primed-to-naïve reprogramming, colony morphology and colony numbers (imaging, AP staining)", "details": "for morphological appearance of naïve hESCs on individual addition to PXGGY/A: 20 ng/ml LIF, 0.5 μM IM12 or 0.5 μM WH-04, P2", "method": "(§3) […]: For primed-to-naïve resetting experiments, primed hESCs were dissociated into single cells using TrypLE Express (GIBCO, 12604), washed in fibroblast medium [DMEM (Millipore Sigma, #SLM-021-B) supplemented with 10% FBS (HyClone, SH30396.03, 1×GlutaMAX (GIBCO, 35050), and 1% penicillin-streptomycin (GIBCO, 15140)] and 2×10^5 single primed hESCs were seeded on mitomycin C-inactivated mouse embryonic fibroblast (MEF) feeder cells coated 6 well plates in 3-4 mL mTeSR1 supplemented with 10 μM Y-27632. Two days later, medium was switched to either 5i/L/A or experimental induction media and maintained for 10-12 days. Cells at this stage were considered at passage zero. Cells were then split in a 1:2 or 1:3 ratio every 4-6 days as single cells using Accutase (Thermo Fischer Scientific, A1110501). PXGGY media were prepared in serum-free N2B27 media supplemented with 1 μM PD0325901, 2 μM XAV939, 2 μM Gö6938, 2.5 μM GDC-0994, and 10 μM Y-27632. PXGGY/A media were prepared in PXGGY supplemented with 10 ng/ml Activin A. During these assays cells were fed with fresh media every second day and cultured in 5% O2, 5% CO2 at 37° C. Detailed information on the conditions used for defining alternative naïve induction media can be found in Tables 1-6.\n(§4) Alkaline phosphatase (AP) staining: AP staining was performed following the manufacturer's instructions using the Leukocyte Alkaline Phosphatase Kit (Sigma, 86R, 1KT). For AP staining cells were seeded at equal density in 6-well plates and passaged in the same ratio for all conditions. Post-staining cells were allowed to dry overnight in the dark and scanned using HP Color Laser Jet Managed printer/scanner (MFP E67650).\n(§5) Imaging: The imaging of H9 and WIBR3 hESCs was performed in live conditions within culture media. For WIBR3 MECP2-GFP/tdTomato hESCs the medium was aspirated, cell were washed twice with PBS, and imaged in 1 mL of PBS. All images were captured at 10× magnification on a Leica DMi8 microscope.\nExample 1 establishes the PXGGY/A cocktail enables efficient primed-to-naïve reprogramming, homogenous induction of naïve-specific cell surface markers CD75 and SUSD2, and homogenous X-chromosome reactivation. […] To address this, the impact of ROCK inhibitor Y-27632 titration was first assessed when used continuously or transiently for only 24 hours at the time of passaging during primed-to-naïve reprogramming (FIG. 9A and FIG. 9B). […] The PXGGY/A composition from hereon will be denoted as PXGGY/A to specify transient use of ROCKi.\nHowever, the morphology of naïve hESCs reprogrammed using this condition still appeared flat compared to the characteristic dome-shaped colony morphology associated with naïve pluripotency. […]"}, "naïve hESCs": {"test_system": "naïve hESCs", "assay": "Colony morphology, proliferation and colony formation (phase contrast, AP staining) during naïve maintenance", "method": "as §1, §4, §5"}, "H9-naïve hESCs [3]": {"test_system": "H9-naïve hESCs", "assay": "qRT-PCR for naïve-specific transcripts (KLF17, DNMT3L) during naïve maintenance", "method": "as §1, §2"}, "H9 primed hESCs": {"test_system": "H9 primed hESCs", "assay": "Primed-to-naïve resetting, flow cytometry for CD75 and SUSD2", "method": "as §3, with “PXGGY/A media were prepared in PXGGY supplemented with 10 ng/ml Activin A. During these assays cells were fed with fresh media every second day and cultured in 5% O2, 5% CO2 at 37° C. Detailed information on the conditions used for defining alternative naïve induction media can be found in Tables 1-6.” left out\nFlow cytometry: Primed hESCs were single-cell dissociated using TrypLE Express, while Accutase was used for naïve hESCs. […] Flow cytometry was performed using a BD LSRFortessa X-20 and the data were analyzed using the FlowJo software."}, "[4]": {"test_system": "WIBR3 OCT4-ΔPE-GFP+naïve hESCs", "assay": "High-throughput chemical screening in absence of 2i, OCT4-ΔPE-GFP reporter, high-content imaging", "details": "N2B27/Y", "method": "High-throughput chemical screening: For high-throughput screening, WIBR3 OCT4-ΔPE-GFP+naïve hESCs generated with inducible KLF2 and NANOG transgenes were used, as described previously. These cells were maintained in 1 μM PD0325901, 1 µM CHIR99021, and 2 μg/ml DOX (Sigma) (2i/DOX). For compound screening in presence of 2i/Y, 3,000 OCT4-ΔPE-GFP+naïve hESCs were seeded per well in vitronectin-coated 384 well plates in serum-free N2B27 media supplemented with 1 μM PD0325901, 1 μM CHIR99021, and 10 μM Y-27632. The next day individual compounds from the Novartis Mechanism of Action (MoA) library were applied at two concentrations (2.5 μM and 5 μM) in duplicate using an Echo 550 Acoustic Liquid Handler (Labcyte), and compounds were refreshed on day 4. Images were analyzed on day 5 post-DOX withdrawal using a Yokogawa Cell Voyager 7000 High-Content Imaging System in confocal mode using a 10× dry (NA=0.45) objective lens using four fields per well that provided for full well coverage. While the screen was performed at two concentrations (2.5 μM and 5 μM), the lower concentration yielded few additional hits. Hit compounds were validated in 384 well plates across an 8-point concentration range in duplicates. […] Images were acquired using the Yokogawa Cell Voyager 7000 on day 7 and analyzed as described above. […]"}},
  "data": [
    {"molecule": "Cc1ccc(NC(=O)c2cccc(C(C)(C)C#N)c2)cc1Nc1ccc2ncn(C)c(=O)c2c1", "note": "[AZ628]", "values": [
      {"measurement": "activity in maintaining OCT4-ΔPE-GFP reporter activity after passaging", "setting": "[1]; in Go/Y", "value": "showed activity"},
      {"measurement": "activity in maintaining OCT4-ΔPE-GFP reporter activity after passaging", "setting": "[1]; in XAV/Y", "value": "showed activity"},
      {"measurement": "expansion of OCT4-ΔPE-GFP+ cells", "setting": "[1]; in the presence of either XAV or Go", "value": "robust expansion"},
      {"measurement": "sustaining CD75/SUSD2-positive cells over multiple passages", "setting": "H9-naïve hESCs [2]", "value": "robustly sustained"}
    ]},
    {"molecule": "Cc1[nH]c2ccccc2c1C1=C(NCCc2ccc(F)cc2)C(=O)N(C)C1=O", "note": "[IM12]", "values": [
      {"measurement": "morphological appearance of naïve hESCs on individual addition to PXGGY/A", "setting": "H9 hESCs", "value": "did not result in a major improvement"}
    ]},
    {"molecule": "CC(C)(C)n1nc(-c2cccc3ccccc23)c2c(N)ncnc21", "note": "[Naphtol-PP1]", "values": [
      {"measurement": "colony morphology upon addition to the AXGY cocktail", "setting": "naïve hESCs; added to AXGY", "value": "enhanced dome-shaped colony morphology"}
    ]},
    {"molecule": "COc1cc(OC)cc(-c2cc3cnc(N)nc3nc2NC(=O)NC(C)(C)C)c1", "note": "[PD166866]", "values": [
      {"measurement": "activity in maintaining OCT4-ΔPE-GFP reporter activity after passaging", "setting": "[1]; in the presence of ROCK inhibitor (Y) alone", "value": "showed activity"},
      {"measurement": "sustaining CD75/SUSD2-positive cells over multiple passages", "setting": "H9-naïve hESCs [2]", "value": "robustly sustained"},
      {"measurement": "concentration effective to maintain expression of naïve-specific transcripts (titration)", "setting": "H9-naïve hESCs [3]; in XAV/Gö/Y, KLF17 and DNMT3L", "value": 1, "unit": "µM"},
      {"measurement": "induction of CD75/SUSD2 double-positive cells in primed hESCs", "setting": "H9 primed hESCs; in the presence of XGY and activin A, end of P1", "value": "heterogeneous induction"}
    ]},
    {"molecule": "C/C(=N\\NC(=N)N)c1cc(NC(=O)CCCCCCCCC(=O)Nc2cc(/C(C)=N/NC(=N)N)cc(/C(C)=N/NC(=N)N)c2)cc(/C(C)=N/NC(=N)N)c1", "note": "[Semapimod]", "values": [
      {"measurement": "sustaining CD75/SUSD2-positive cells over multiple passages", "setting": "H9-naïve hESCs [2]", "value": "some double-positive cells"},
      {"measurement": "proliferation of double-positive cells", "setting": "naïve hESCs; serum-free media supplemented with XGY", "value": "very limited proliferation"}
    ]},
    {"molecule": "COc1cc2c(NC3CCN(C(C)C)CC3)nc(C3CCCCC3)nc2cc1OCCCN1CCCC1", "note": "[UNC0638]", "values": [
      {"measurement": "KLF17 expression upon addition to the AXGY cocktail", "setting": "H9-naïve hESCs [3]; added to AXGY", "value": "further stimulated"},
      {"measurement": "colony proliferation compared to AXGY", "setting": "naïve hESCs; added to AXGY", "value": "slightly reduced"}
    ]},
    {"molecule": "COc1ccc(N(C(=O)Oc2c(C)cccc2C)c2ccnc(Nc3ccc(N4CCN(C)CC4)cc3)n2)c(OC)c1", "note": "[WH-4-023]", "values": [
      {"measurement": "morphological appearance of naïve hESCs on individual addition to PXGGY/A", "setting": "H9 hESCs", "value": "did not result in a major improvement"}
    ]},
    {"molecule": "Oc1nc(-c2ccc(C(F)(F)F)cc2)nc2c1CSCC2", "note": "[XAV939]", "values": [
      {"measurement": "colony size and OCT4-ΔPE-GFP signal compared to inhibition of MEK1", "setting": "[4]", "value": "larger colonies but a slightly dimmer OCT4-ΔPE-GFP signal"},
      {"measurement": "increase in GFP activity (OCT4-ΔPE-GFP)", "setting": "[4]; validation assays, absence of 2i", "value": "particularly strong effect"}
    ]},
    {"molecule": "C[C@@H](N)[C@H]1CC[C@H](C(=O)Nc2ccncc2)CC1", "note": "[Y-27632]", "values": [
      {"measurement": "CD75+/SUSD2+ cell proportion", "setting": "H9 primed hESCs; transient application of 10 μM in PXGGY/A, P1", "value": "without any significant reduction"},
      {"measurement": "morphology of reprogrammed naïve hESCs", "setting": "H9 hESCs; transient application (24 hours at passaging) of 10 μM in PXGGY/A", "value": "improves the morphology"}
    ]},
    {"molecule": "LIF: leukemia inhibitory factor, recombinant human cytokine", "values": [
      {"measurement": "morphological appearance of naïve hESCs on individual addition to PXGGY/A", "setting": "H9 hESCs", "value": "did not result in a major improvement"}
    ]}
  ]
}
